Laboratory results taken from the supplement of paper PMC10307832.

Legend:
Test in all cases: relative viability (nuclei count vs DMSO), 5 days (fraction); higher = more cells survive
AZD5582 + Decitabine = compound: C[C@@H](C(=O)N[C@@H](C1CCCCC1)C(=O)N2CCC[C@H]2C(=O)N[C@@H]3[C@@H](CC4=CC=CC=C34)OCC#CC#CCO[C@@H]5CC6=CC=CC=C6[C@@H]5NC(=O)[C@@H]7CCCN7C(=O)[C@H](C8CCCCC8)NC(=O)[C@H](C)NC)NC [AZD5582] + Nc1ncn([C@H]2C[C@H](O)[C@@H](CO)O2)c(=O)n1 [Decitabine] (partner 2 µM)
How it was run: (§1)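 Lung cancer cell lines, seeded in 1536-well plates, were treated the following day by pin tool with a single drug or with five library-drug doses (not always all listed) in √10 steps on top of a fixed anchor-drug dose. Cells were fixed and nuclei stained in one step after 5 days, and nuclei were counted. Relative viability is the nuclei count for treated wells divided by that for vehicle wells, reported as medians of duplicate plates.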

AZD5582 + Vorinostat = compound: C[C@@H](C(=O)N[C@@H](C1CCCCC1)C(=O)N2CCC[C@H]2C(=O)N[C@@H]3[C@@H](CC4=CC=CC=C34)OCC#CC#CCO[C@@H]5CC6=CC=CC=C6[C@@H]5NC(=O)[C@@H]7CCCN7C(=O)[C@H](C8CCCCC8)NC(=O)[C@H](C)NC)NC [AZD5582] + O=C(CCCCCCC(=O)Nc1ccccc1)NO [Vorinostat] (partner 1 µM)
How it was run: as §1

[1] = compound: Cn1nnc2c(C(N)=O)ncn2c1=O [Temozolomide] + CC1(C)CCC(c2ccc(Cl)cc2)=C(CN2CCN(c3ccc(C(=O)NS(=O)(=O)c4ccc(N[C@H](CCN5CCOCC5)CSc5ccccc5)c(S(=O)(=O)C(F)(F)F)c4)cc3)CC2)C1 [Navitoclax] (partner 0.5 µM)
How it was run: as §1

AZD5582 + Foretinib = compound: C[C@@H](C(=O)N[C@@H](C1CCCCC1)C(=O)N2CCC[C@H]2C(=O)N[C@@H]3[C@@H](CC4=CC=CC=C34)OCC#CC#CCO[C@@H]5CC6=CC=CC=C6[C@@H]5NC(=O)[C@@H]7CCCN7C(=O)[C@H](C8CCCCC8)NC(=O)[C@H](C)NC)NC [AZD5582] + COc1cc2c(Oc3ccc(NC(=O)C4(C(=O)Nc5ccc(F)cc5)CC4)cc3F)ccnc2cc1OCCCN1CCOCC1 [Foretinib] (partner 0.25 µM)
How it was run: as §1

| Cell Line | relative viability (AZD5582 + Decitabine; first compound 0.001581 µM) | relative viability (AZD5582 + Decitabine; first compound 0.005 µM) | relative viability (AZD5582 + Decitabine; first compound 0.01581 µM) | relative viability (AZD5582 + Decitabine; first compound 0.05 µM) | relative viability (AZD5582 + Vorinostat; first compound 0.001581 µM) | relative viability (AZD5582 + Vorinostat; first compound 0.005 µM) | relative viability (AZD5582 + Vorinostat; first compound 0.01581 µM) | relative viability (AZD5582 + Vorinostat; first compound 0.05 µM) | relative viability ([1]; first compound 0.2 µM) | relative viability ([1]; first compound 0.6325 µM) | relative viability ([1]; first compound 2 µM) | relative viability ([1]; first compound 6.325 µM) | relative viability ([1]; first compound 20 µM) | relative viability (AZD5582 + Foretinib; first compound 0.001581 µM) | relative viability (AZD5582 + Foretinib; first compound 0.005 µM) | relative viability (AZD5582 + Foretinib; first compound 0.01581 µM) | relative viability (AZD5582 + Foretinib; first compound 0.05 µM) |
| --- | --- | --- | --- | --- | --- | --- | --- | --- | --- | --- | --- | --- | --- | --- | --- | --- | --- |
| SK-LU-1 | 0.535 | 0.379 | 0.673 | 0.21 | 0.7 | 0.505 | 0.824 | 0.292 | 1.03 | 0.88 | 0.8 | 0.522 | 0.189 | 0.794 | 0.772 | 0.843 | 0.472 |
| NCI-H1437 | 0.543 | 0.554 | 0.595 | 0.565 | 0.711 | 0.751 | 0.838 | 0.743 | 1.15 | 1.12 | 1.13 | 1.13 | 1.17 | 1.17 | 1.22 | 1.24 | 1.16 |
| NCI-H647 | 0.426 | 0.366 | 0.417 | 0.331 | 0.353 | 0.515 | 0.635 | 0.585 | 1.16 | 1.24 | 1.24 | 0.73 | 0.291 | 1.08 | 1.16 | 1.1 | 1.21 |
| LC-2-ad | 0.822 | 0.847 | 0.765 | 0.764 | 0.697 | 0.726 | 0.704 | 0.804 | 0.598 | 0.437 | 0.358 | 0.374 | 0.336 | 0.933 | 1.16 | 0.829 | 0.923 |
| NCI-H2087 | 0.336 | 0.299 | 0.255 | 0.28 | 0.424 | 0.788 | 0.712 | 0.594 | 1.15 | 1.05 | 1.02 | 0.891 | 0.965 | 0.957 | 1.24 | 1.05 | 1.16 |
| NCI-H1944 | 0.432 | 0.485 | 0.494 | 0.457 | 0.464 | 0.641 | 0.542 | 0.619 | 0.855 | 1.05 | 1.12 | 1.04 | 0.913 | 0.8 | 0.976 | 0.93 | 1.05 |
| COR-L23 | 0.476 | 0.441 | 0.445 | 0.481 | 0.404 | 0.495 | 0.452 | 0.587 | 1.2 | 0.933 | 1.02 | 0.976 | 0.938 | 0.963 | 0.887 | 0.87 | 1.1 |
| NCI-H727 | 0.965 | 0.856 | 0.801 | 0.921 | 1.06 | 1.13 | 1.01 | 1.16 | 0.409 | 0.428 | 0.496 | 0.469 | 0.324 | 0.867 | 1.03 | 1.01 | 0.825 |
| HCC-78 | 0.786 | 0.703 | 0.688 | 0.585 | 0.414 | 0.493 | 0.438 | 0.366 | 0.48 | 0.738 | 0.953 | 0.836 | 0.793 | 0.537 | 0.624 | 0.548 | 0.62 |
| UMC-11 | 0.637 | 0.638 | 0.731 | 0.71 | 0.396 | 0.391 | 0.381 | 0.354 | 0.338 | 0.315 | 0.313 | 0.281 | 0.274 | 0.995 | 1.12 | 1.03 | 1.05 |
